Assay results from ChEMBL document CHEMBL1124825 (J Med Chem, 1990).

What was measured:
Dihydrofolate reductase = target: T1, Dihydrofolate reductase (Mus musculus, UniProt P00375); test: Inhibitory activity of Dihydrofolate reductase derived from L1210 cell line.; type: cell-based
T1 sequence (P00375 whole entry): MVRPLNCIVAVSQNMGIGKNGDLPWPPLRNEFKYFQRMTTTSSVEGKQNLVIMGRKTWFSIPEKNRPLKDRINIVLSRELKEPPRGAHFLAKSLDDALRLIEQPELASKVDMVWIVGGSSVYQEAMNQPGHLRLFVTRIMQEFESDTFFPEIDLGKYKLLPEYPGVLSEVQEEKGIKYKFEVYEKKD

L1210 = test: Inhibitory activity for the growth inhibition of L1210 cell line.; type: functional, cell-based; details: Mus musculus
[1] = Relative influx was determined by taking the ratio vs MTX in L1210 cell line; type: functional
[2] = Inhibitory activity for Lactobacillus casei Glycinamide ribotide formyltransferase; set-up: species or system Lacticaseibacillus casei
[3] = Inhibitory activity for L1210 Glycinamide ribotide formyltransferase; set-up: species or system Mus musculus

Row | Ki (Dihydrofolate reductase) [nM] | IC50 (L1210) [nM] | IC50 [2] [nM] | IC50 [3] [nM] | Structure (SMILES) | Relative influx [1]
1 | 0.013 | 12.1 | – | – | CCC(Cc1cnc2nc(N)nc(N)c2c1)c1ccc(C(=O)NC(CCC(=O)O)C(=O)O)cc1 (stereo unspecified) | 1.32
2 | > 1000 | 34.6 | 80 | 660 | CCC(CC1CNc2nc(N)nc(O)c2C1)c1ccc(C(=O)NC(CCC(=O)O)C(=O)O)cc1 (stereo unspecified) | 1.36
3 | > 1000 | 50.3 | 17 | 1500 | CC(CC1CNc2nc(N)nc(O)c2C1)c1ccc(C(=O)NC(CCC(=O)O)C(=O)O)cc1 (stereo unspecified) | 1.72
4 | > 1000 | 57.2 | 10 | 500 | Nc1nc(O)c2c(n1)CCC(CNc1ccc(C(=O)NC(CCC(=O)O)C(=O)O)cc1)C2 (stereo unspecified) | 1.54

Row | Structure (SMILES) | Ki (Dihydrofolate reductase) [nM] | IC50 (L1210) [nM] | IC50 [2] [nM] | IC50 [3] [nM] | Relative influx [1]
5 | CC(Cc1cnc2nc(N)nc(N)c2c1)c1ccc(C(=O)NC(CCC(=O)O)C(=O)O)cc1 (stereo unspecified) | 0.007 | 23.9 | – | – | 1.43
